According to US20130184222A1, “[…] ACTIVE COMPOSITIONS AND THEIR METHODS OF USE” (AGIOS PHARMACEUTICALS, INC, priority 2010, published 2013):

Assays:
[1] = molecular target: IDH1 R132H (Homo sapiens, UniProt O75874, R132H); experiment: In vitro assay for IDH1 R132H inhibitors (NADPH/aKG, resazurin detection); type: biochemical; settings: Table 4B; 0.2 μg/ml IDH1 R132H, 50 minutes at room temperature; read-out: IC50, IDH1 R132H Inhibition
In short: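 Reaction ran 50 min at room temperature in Tris pH 7.5 buffer with 150 mM NaCl, 10 mM MgCl2 and 0.03% BSA. Mix concentrations were 0.2 μg/ml mutant enzyme, 8 uM NADPH and 2 mM aKG. Detection added 30 μM resazurin, with resorufin fluorescence (Ex544/Em590) measured 5 min later.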

[2] = test system: U87MG cells; experiment: Cellular assay: inhibition of 2-HG production in U87MG cells (LC-MS, 48 hours); type: cell-based; settings: Homo sapiens, U-87 MG, 2-HG in media by LC-MS
In short: (§1)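 HT1080 or U87MG cells (5000/well, DMEM + 10% FBS) seeded overnight, then exposed to compound (0.2% DMSO final) for 48 h; medium 2-HG measured by LC-MS. Viability read by CellTiter-Glo luminescence at 72 h.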

[3] = test system: HT1080 cells; experiment: Cellular assay: inhibition of 2-HG production in HT1080 cells (LC-MS, 48 hours); type: cell-based; settings: Homo sapiens, HT-1080, 2-HG in media by LC-MS
In short: as §1

IDH1 R132H, sequence (O75874 whole entry R132H): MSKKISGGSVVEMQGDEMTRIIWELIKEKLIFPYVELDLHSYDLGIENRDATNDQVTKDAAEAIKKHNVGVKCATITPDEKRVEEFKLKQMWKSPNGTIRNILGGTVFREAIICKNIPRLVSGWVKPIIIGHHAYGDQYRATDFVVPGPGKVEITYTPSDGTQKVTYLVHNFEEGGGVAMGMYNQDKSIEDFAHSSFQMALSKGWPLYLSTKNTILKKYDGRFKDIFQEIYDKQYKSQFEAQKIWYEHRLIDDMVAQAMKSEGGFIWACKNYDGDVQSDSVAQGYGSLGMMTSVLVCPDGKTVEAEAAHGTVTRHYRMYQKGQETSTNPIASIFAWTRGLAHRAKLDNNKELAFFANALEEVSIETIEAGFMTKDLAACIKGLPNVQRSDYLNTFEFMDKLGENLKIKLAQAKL

Structure (SMILES) | IC50 [1] [nM] | IC50 [2] [nM] | IC50 [3] [nM]
Cc1ccccc1[C@@H](C(=O)NC1CCCCC1)N(C(=O)[C@H]1CCCN1S(C)(=O)=O)c1cccc(F)c1 [Compound 363] | 100 to 1000 | 250 to 1000 | 1000 to 5000
Cc1ccccc1C(C(=O)NC1CC(F)(F)C1)N(C(=O)Cn1ccnc1C)c1cccc(F)c1 (stereo not drawn) [Compound 380] | 100 to 1000 | ≤ 250 | 1000 to 5000
Cc1ccccc1C(C(=O)NC1CCCCC1)N(C(=O)Cc1ccc(OC(=O)N2CCOCC2)cc1)c1cccc(F)c1 (stereo not drawn) [Compound 264] | 100 to 1000 | 250 to 1000 | 250 to 1000
Cc1ccccc1C(C(=O)NC1CCC(F)(F)CC1)N(C(=O)COc1ccccn1)c1cccc(F)c1 (stereo not drawn) [Compound 331] | ≤ 100 | ≤ 250 | ≤ 250
Cc1ccccc1C(C(=O)NC1CCCCC1)N(C(=O)C(=O)c1c[nH]c2ccncc12)c1cccc(F)c1 (stereo not drawn) [Compound 269] | 100 to 1000 | 1000 to 5000 | 1000 to 5000
Cc1ccccc1C(C(=O)NC1CCCCC1)N(C(=O)Cc1cccnc1)c1cccc(F)c1 (stereo not drawn) [Compound 288] | ≤ 100 | 1000 to 5000 | 250 to 1000
Cc1ccccc1C(C(=O)NC1CC2CC2C1)N(C(=O)CNc1ncccc1F)c1cccc(F)c1 (stereo not drawn) [Compound 333] | 100 to 1000 | 1000 to 5000 | ≤ 250
Cc1ccccc1C(C(=O)NC1CCCCC1)N(C(=O)COCc1ccncc1)c1cccc(F)c1 (stereo not drawn) [Compound 229] | 100 to 1000 | 1000 to 5000 | 250 to 1000
N#Cc1ccc(NCC(=O)N(c2cccc(F)c2)C(C(=O)NC2CCCCC2)c2ccccc2Cl)cc1 (stereo not drawn) [Compound 322] | ≤ 100 | ≤ 250 | ≤ 250
Cc1ccccc1C(C(=O)NC1CCCCC1)N(C(=O)CNc1ccc(F)nc1)c1cccc(F)c1 (stereo not drawn) [Compound 237] | ≤ 100 | 1000 to 5000 | 250 to 1000
Cc1ccccc1C(C(=O)NC1CCCCC1)N(C(=O)CNc1ccc(C#N)cc1)c1cccc(F)c1 (stereo not drawn) [Compound 227] | ≤ 100 | ≤ 250 | ≤ 250
Cc1ccccc1C(C(=O)NC1CCCCC1)N(C(=O)CNc1cccnc1F)c1cccc(F)c1 (stereo not drawn) [Compound 272] | ≤ 100 | ≤ 250 | ≤ 250
Cc1ccccc1C(C(=O)NC1CCCCC1)N(C(=O)COc1cc(C(F)(F)F)ccn1)c1cccc(F)c1 (stereo not drawn) [Compound 303] | 100 to 1000 | 250 to 1000 | ≤ 250
Cc1ccccc1C(C(=O)NC1CCCCC1)N(C(=O)CNCc1ccncc1)c1cccc(F)c1 (stereo not drawn) [Compound 171] | 100 to 1000 | 1000 to 5000 | 250 to 1000
Cc1ccccc1C(C(=O)NC1CC2CC2C1)N(C(=O)Cn1ccnc1C)c1cccc(F)c1 (stereo not drawn) [Compound 327] | 100 to 1000 | ≤ 250 | 1000 to 5000
Cc1ccccc1C(C(=O)NC1CC2CC2C1)N(C(=O)Cn1ccc2ncccc21)c1cccc(F)c1 (stereo not drawn) [Compound 325] | 100 to 1000 | 1000 to 5000 | 1000 to 5000
Cc1ccccc1C(C(=O)NC1CCCCC1)N(C(=O)Cn1ccnc1C)c1ccn(C)n1 (stereo not drawn) [Compound 246] | 100 to 1000 | 250 to 1000 | 1000 to 5000
Cc1ccccc1C(C(=O)NC1CCCCC1)N(C(=O)CNc1cccc(C#N)c1)c1cccc(F)c1 (stereo not drawn) [Compound 265] | ≤ 100 | 250 to 1000 | ≤ 250
Cc1ccccc1C(C(=O)NC1CCCCC1)N(C(=O)CNc1cc(F)ccn1)c1cccc(F)c1 (stereo not drawn) [Compound 287] | ≤ 100 | ≤ 250 | ≤ 250
Cc1ccccc1C(C(=O)NC1CC2CC2C1)N(C(=O)COc1ccccn1)c1cccc(F)c1 (stereo not drawn) [Compound 354] | 100 to 1000 | 250 to 1000 | 250 to 1000
CCOC(=O)N1CCC[C@H]1C(=O)N(c1cccc(F)c1)[C@H](C(=O)NC1CCCCC1)c1ccccc1C [Compound 359] | ≤ 100 | ≤ 250 | 250 to 1000
Cc1ccccc1C(C(=O)NC1CCCCC1)N(C(=O)CNCc1ccn(C)n1)c1cccc(F)c1 (stereo not drawn) [Compound 256] | 100 to 1000 | 1000 to 5000 | 250 to 1000
Cc1ccccc1C(C(=O)NC1CCCCC1)N(C(=O)CN1CCN(C(=O)O[C@H]2CCOC2)CC1)c1cccc(F)c1 (stereo partly drawn) [Compound 248] | 100 to 1000 | 1000 to 5000 | 1000 to 5000
Cc1ccccc1C(C(=O)NC1CCCCC1)N(C(=O)CN1Cc2cccnc2C1)c1cccc(F)c1 (stereo not drawn) [Compound 209] | 100 to 1000 | 250 to 1000 | ≤ 250
Cc1ccccc1C(C(=O)NC1CCCCC1)N(C(=O)Cc1c[nH]c2cnccc12)c1cccc(F)c1 (stereo not drawn) [Compound 276] | ≤ 100 | ≤ 250 | ≤ 250
Cc1ccccc1C(C(=O)NC1CCCCC1)N(C(=O)COCc1cccnc1)c1cccc(F)c1 (stereo not drawn) [Compound 233] | 100 to 1000 | 1000 to 5000 | 250 to 1000
COC(=O)N1CCN(CC(=O)N(Cc2cccs2)C(C(=O)NC2CCCCC2)c2ccccc2C)CC1 (stereo not drawn) [Compound 208] | 100 to 1000 | 1000 to 5000 | 1000 to 5000
Cc1ccccc1C(C(=O)NC1CCCCC1)N(C(=O)Cn1ccc2ccccc21)c1cccc(F)c1 (stereo not drawn) [Compound 271] | ≤ 100 | 250 to 1000 | ≤ 250
Cc1ccccc1C(C(=O)NC1CCCCC1)N(C(=O)Cn1ccnc1C)c1cccc(Br)c1 (stereo not drawn) [Compound 268] | 100 to 1000 | ≤ 250 | 1000 to 5000

Now from value to molecule:

IC50 [1] [nM] | IC50 [2] [nM] | IC50 [3] [nM] | Structure (SMILES)
100 to 1000 | ≤ 250 | 250 to 1000 | Cc1ccccc1C(C(=O)NC1CCC(F)(F)CC1)N(C(=O)Cn1ccnc1C)c1cccc(F)c1 (stereo not drawn) [Compound 330]
≤ 100 | 250 to 1000 | ≤ 250 | Cc1ccccc1C(C(=O)NC1CCCCC1)N(C(=O)COc1ccc(F)cn1)c1cccc(F)c1 (stereo not drawn) [Compound 260]
100 to 1000 | 1000 to 5000 | 250 to 1000 | Cc1ccccc1C(C(=O)NC1CCCCC1)N(C(=O)Cc1c[nH]c2ccccc12)c1ccn(C)n1 (stereo not drawn) [Compound 238]
100 to 1000 | 1000 to 5000 | 250 to 1000 | Cc1ccccc1C(C(=O)NC1CCCCC1)N(C(=O)CN1CCOCC1)c1cccc(F)c1 (stereo not drawn) [Compound 134]
100 to 1000 | 1000 to 5000 | 1000 to 5000 | Cc1ccccc1C(C(=O)NC1CCCCC1)N(C(=O)CN[C@H]1CCOC1)c1cccc(F)c1 (stereo partly drawn) [Compound 191]
100 to 1000 | 250 to 1000 | 1000 to 5000 | Cc1ccccc1C(C(=O)NC1CCCCC1)N(C(=O)Cn1ccc2ncccc21)c1cccc(F)c1 (stereo not drawn) [Compound 252]
≤ 100 | 250 to 1000 | ≤ 250 | Cc1ccccc1C(C(=O)NC1CCCCC1)N(C(=O)COc1ccccn1)c1cccc(F)c1 (stereo not drawn) [Compound 198]
100 to 1000 | 250 to 1000 | 250 to 1000 | COC(=O)N1CCCC[C@H]1C(=O)N(c1cccc(F)c1)[C@H](C(=O)NC1CCCCC1)c1ccccc1C [Compound 336]
≤ 100 | ≤ 250 | ≤ 250 | [2H]C1([2H])C([2H])([2H])C([2H])([2H])C([2H])(NC(=O)C(c2ccccc2C)N(C(=O)COc2ccccn2)c2cccc(F)c2)C([2H])([2H])C1([2H])[2H] (stereo not drawn) [Compound 351]
≤ 100 | ≤ 250 | ≤ 250 | COC(=O)N(C)CC(=O)N(c1cccc(F)c1)C(C(=O)NC1CCCCC1)c1ccccc1C (stereo not drawn) [Compound 341]
100 to 1000 | 1000 to 5000 | 1000 to 5000 | Cc1ccccc1C(C(=O)NC1CCCCC1)N(C(=O)CNCc1cnccn1)c1cccc(F)c1 (stereo not drawn) [Compound 254]
100 to 1000 | 1000 to 5000 | 1000 to 5000 | Cc1ccccc1C(C(=O)NC1CCN(C(=O)OC(C)(C)C)C1)N(C(=O)Cc1cccs1)c1cccc(F)c1 (stereo not drawn) [Compound 190]
100 to 1000 | 1000 to 5000 | 1000 to 5000 | COc1ccccc1CNCC(=O)N(c1cccc(F)c1)C(C(=O)NC1CCCCC1)c1ccccc1C (stereo not drawn) [Compound 220]
≤ 100 | ≤ 250 | ≤ 250 | Cc1ccccc1C(C(=O)NC1CCCCC1)N(C(=O)Cc1ccc(O)cc1)c1cccc(F)c1 (stereo not drawn) [Compound 217, N-Cyclohexyl-2-{(3-fluoro-phenyl)-[2-(4-hydroxy-phenyl)-acetyl]-amino}-2-o-tolyl-acetamide]
